According to US8129527B2, “Analogs of dehydrophenylahistins and their therapeutic use” (Nereus Pharmacuticals, Inc., priority 2006, dated 2012):
Read-outs that look alike come from different tables or passages of the source.

Key:
[1] = tested on: PC-3 prostatic adenocarcinoma cells; assay: Tumor cytotoxicity assay, resazurin fluorescence, 48 h (Example 6); type: cell-based, human; details: read-out: EC50 (nM) PC-3
Description: 10× concentrated serial dilutions of the two compounds were prepared in appropriate culture medium for final concentrations ranging from 2.0×10^−5 M to 2.0×10^−10 M. Ten μl volumes of the 10× serial dilutions were added to the test wells in triplicate and the plates returned to the incubator for 48 hours.
Following 48 hours of drug exposure 10 μl of 0.2 mg/ml resazurin (obtained from Sigma-Aldrich Chemical Co.) in Mg^2+, Ca^2+ free PBS was added to each well and the plates were returned to the incubator for 3-4 hours. […] Resazurin dye without cells was used to determine the background, which was subtracted from the data for all experimental wells. The data were analyzed using Prism software (GraphPad Software).
PC-3, a human prostate adenocarcinoma, was maintained in F12K complete medium (F12K medium supplemented with 10% FBS; 2 mM Glutamine; 1% HEPES; and Pen/Strep at 100 IU/ml and 100 µg/ml, respectively).

[2] = tested on: P388 murine leukemia cells; assay: Cytotoxic effect in P388 cells; type: cell-based
Text: The cytotoxic effects of phenylahistin, dehydrophenylahistin and various derivatives of dehydrophenylahistin were examined in P388 murine leukemia cells, HT-29 human colon cells, and PC-3 prostatic adenocarcinoma cells.

[3] = tested on: B16-F10 (murine melanoma); assay: Tumor panel screen cytotoxicity (Example 10A); type: cell-based
Text: (§1) Cells were maintained at subconfluent densities in their respective culture media.

[4] = tested on: CCD-27sk (normal human fibroblast); assay: Tumor panel screen cytotoxicity (Example 10A); type: cell-based; details: CCD-27sk Fibroblast
Text: as §1

HT29 (human colon tumor) = assay: Tumor panel screen cytotoxicity (Example 10A); type: cell-based
Text: as §1

[5] = tested on: MDA-MB-231 (human breast tumor); assay: Tumor panel screen cytotoxicity (Example 10A); type: cell-based; details: MDA-MB-231 Breast
Text: as §1

[6] = tested on: NCI-H292 (human non-small cell lung tumor); assay: Tumor panel screen cytotoxicity (Example 10A); type: cell-based; details: maximum cytotoxic effect
Text: as §1

[7] = tested on: OVCAR-3 (human ovarian tumor); assay: Tumor panel screen cytotoxicity (Example 10A); type: cell-based; details: OVCAR-3 Ovary
Text: as §1

[8] = tested on: PC3 (human prostate tumor); assay: Tumor panel screen cytotoxicity (Example 10A); type: cell-based; details: PC-3 Prostate
Text: as §1

[9] = tested on: MCF-7 (Taxol Sensitive) human breast carcinoma; assay: Drug resistant cell line pair, cytotoxicity (Example 10B); type: cell-based; details: Homo sapiens, MCF7/Taxol, read-out: MCF-7 Sensitive IC50 nM
Text: (§2) 3). Human Breast Carcinoma Cell Line Pair: MCF-7 (Taxol Sensitive) and MCF-7/ADR (Taxol Resistant)

[10] = tested on: MCF-7/ADR (Taxol Resistant) human breast carcinoma; assay: as above; type: cell-based; details: Homo sapiens, NCI/ADR-RES, read-out: MCF-7/ADR Resistant IC 50 nM
Text: as §2

PARP in Jurkat cells = assay: Cleavage of poly(ADP-ribose)polymerase (PARP), western blotting; type: cell-based, human; details: 100 nM, 10 hours after exposure
Description: In order to assess the ability of these compounds to induce apoptosis in Jurkat cells, cleavage of poly(ADP-ribose)polymerase (PARP) was monitored. […] The cleavage of PARP generates a stable 89 kDa product, and this process can be easily monitored by western blotting.

HT-29 human colon tumor = assay: HT-29 Human Colon Tumor Xenograft Model; type: in vivo
Summary of the method: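 Nude mice bearing s.c. trocar-implanted HT-29 fragments were grouped at 5 mm×5 mm tumours and dosed i.p.; in combinations, reference chemotherapy was given 15-30 min before compound. Caliper measurements twice weekly were converted to tumour weight as (W^2×L)/2, with study end when control tumours averaged 1000 mg.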

[11] = tested on: MDA-231 human breast tumor; assay: MDA-231 Human Breast Tumor Orthotopic Xenograft Model (mammary fat pad); type: in vivo, nude mice; details: KPU-2 7.5 mg/kg ip q3dx5 with paclitaxel 16 mg/kg ip qdx5, three weeks
Description: The animals used were: female nude mice (nu/ni) (MDA-231 study) or B6D2F1 (B16-F10 studies) mice between 5 and 6 weeks of age (˜20 g, Harlan); group size was 10 mice per group unless otherwise indicated.
The cell lines used were: MDA-MB-231 human breast tumor and B16-F10 murine melanoma cells.
NPI compounds were administered as monotherapy via the intraperitoneal route at the doses indicated for the individual study; for the combination studies the selected reference chemotherapy agents were injected 15-30 min prior to the NPI compound.
Female nude mice were injected in the mammary fat pad with 2×10^6 MDA-231 cells harvested from in vitro cell culture. When the tumor size reached 5 mm×5 mm (about 14-28 days) the animals were matched into treatment and control groups. The study then proceeded as described for the HT-29 model, using paclitaxel as the standard chemotherapy agent.
In this model unless otherwise noted for the individual study, the test compounds were administered via the intraperitoneal route on Days 1, 4, 8, 11 and 15 (q3dx5); paclitaxel was administered via the intraperitoneal route on Days 1-5 (qdx5).
This model involves the placement of the human tumor tissue into the mouse mammary fat pad, a surrogate of the natural environment. In this manner the possibility of a positive effect due to a specific action on the subcutaneous vascular bed is avoided.

c-RAF (human) = c-RAF (human) (Homo sapiens, UniProt P04049); details: ATP 10 μM
c-RAF (human), sequence (P04049 whole entry): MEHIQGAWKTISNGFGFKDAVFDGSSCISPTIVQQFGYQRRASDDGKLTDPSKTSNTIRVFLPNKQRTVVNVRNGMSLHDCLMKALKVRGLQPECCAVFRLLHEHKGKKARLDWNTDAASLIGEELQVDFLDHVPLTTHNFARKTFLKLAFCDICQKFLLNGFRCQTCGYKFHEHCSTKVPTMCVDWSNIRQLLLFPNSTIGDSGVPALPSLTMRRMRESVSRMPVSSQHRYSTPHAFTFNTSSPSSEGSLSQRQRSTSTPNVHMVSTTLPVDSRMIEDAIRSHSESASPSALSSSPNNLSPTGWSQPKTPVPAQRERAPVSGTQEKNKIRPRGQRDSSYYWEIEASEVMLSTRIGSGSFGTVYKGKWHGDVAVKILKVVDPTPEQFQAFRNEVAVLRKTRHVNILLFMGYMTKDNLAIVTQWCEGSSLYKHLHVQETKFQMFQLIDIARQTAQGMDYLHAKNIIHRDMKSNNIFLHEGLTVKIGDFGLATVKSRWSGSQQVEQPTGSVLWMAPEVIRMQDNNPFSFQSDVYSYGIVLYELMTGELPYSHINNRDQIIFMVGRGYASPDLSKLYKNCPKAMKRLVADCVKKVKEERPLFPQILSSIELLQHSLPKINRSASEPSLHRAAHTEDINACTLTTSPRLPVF

JNK3 (rat) = JNK3 (rat) (Rattus norvegicus, UniProt P49187); details: ATP 10 μM
JNK3 (rat), sequence (P49187 whole entry): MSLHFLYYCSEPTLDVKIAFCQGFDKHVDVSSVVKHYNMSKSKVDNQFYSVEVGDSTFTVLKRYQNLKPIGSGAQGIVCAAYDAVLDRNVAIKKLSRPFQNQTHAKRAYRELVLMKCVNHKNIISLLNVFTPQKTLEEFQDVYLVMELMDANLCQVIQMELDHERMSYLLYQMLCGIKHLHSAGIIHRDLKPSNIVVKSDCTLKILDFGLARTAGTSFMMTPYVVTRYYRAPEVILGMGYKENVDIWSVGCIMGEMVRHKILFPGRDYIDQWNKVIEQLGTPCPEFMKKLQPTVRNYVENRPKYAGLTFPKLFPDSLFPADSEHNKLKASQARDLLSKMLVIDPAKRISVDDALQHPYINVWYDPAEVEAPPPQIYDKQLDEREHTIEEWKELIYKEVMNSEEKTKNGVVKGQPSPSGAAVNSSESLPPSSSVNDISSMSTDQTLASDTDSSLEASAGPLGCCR

CC(C)(C)c1[nH]cnc1/C=c1\[nH]c(=O)/c(=C/c2ccccc2)[nH]c1=O [KPU-2, tBu-dehydro-PLH]
EC50 ([1]; Table 2): 1 nM | EC50 ([1]; Table 3): 1 nM | IC50 ([2]; Mus musculus, P388, read-out: IC50 (nM) P-388): 31.8 ± 5 nM | cytotoxicity in P388 cells ([2]; in words): exhibited cytotoxicity in P388 cells | IC50 ([3]; Mus musculus): 37.1 nM | % Cytotoxicity Mean ([3]; maximum cytotoxic effect): 71.8% | % Cytotoxicity Mean ([4]; maximum cytotoxic effect): 64.3% | IC50 ([4]; Homo sapiens): 9.2 nM | % Cytotoxicity Mean (HT29 (human colon tumor); HT-29 Colon, maximum cytotoxic effect): 82.5% | IC50 (HT29 (human colon tumor); Homo sapiens, HT-29 Colon): 9.8 nM | potency on the HT-29 tumor cell line (HT29 (human colon tumor); in words): low nanomolar range | IC50 ([5]; Homo sapiens): 13.8 nM | % Cytotoxicity Mean ([5]; maximum cytotoxic effect): 56.7% | % Cytotoxicity Mean [6]: 70.5% | IC50 ([7]; Homo sapiens): > 20000 nM | % Cytotoxicity Mean ([7]; maximum cytotoxic effect): 45.8% | IC50 ([8]; Homo sapiens): 13.4 nM | % Cytotoxicity Mean ([8]; maximum cytotoxic effect): 60.3% | IC50 [9]: 39.6 nM | IC50 [10]: 27.4 nM | cleavage of PARP (PARP in Jurkat cells): induced cleavage of PARP | Comments (combination with CPT-11) (HT-29 human colon tumor; NPI compound + CPT-11 100 ip qwx3, study and dose as in the line): Synergy | NPI-Compound Result TGI % (HT-29 human colon tumor; Study 2139, monotherapy 7.5 mg/kg ip q3dx5): No Effect | NPI-Compound Result TGI % (HT-29 human colon tumor; Study 2164, monotherapy 7.5 mg/kg ip q3dx5): No Effect | NPI-Compound Result TGI % (HT-29 human colon tumor; Study 2164, monotherapy 7.5 mg/kg ip qdx5): No Effect | NPI-Compound Result TGI % (HT-29 human colon tumor; Study 2288, monotherapy 10→7.5 mg/kg ip q3dx5): No Effect | Exceed NCI Criterion (TGI ≧ 58%) (HT-29 human colon tumor; which treatment group exceeds the criterion, NPI compound, CPT-11 100 ip qwx3 or combination, study and dose as in the line): Combination | inhibition of tumor growth [11]: significant inhibition of tumor growth | IC50 (c-RAF (human)): 8900 nM | IC50 (JNK3 (rat)): 6800 nM
